Where two headings read alike, the source gives them in different places.
How the values were obtained:
DGAT1 = molecular target: T1, DGAT1 (Homo sapiens, UniProt O75907); test: Human DGAT1 IC50 enzyme assay (Flashplate, 14C-labeled acyl-CoA); format: biochemical; parameters: made in house
T1 sequence (O75907 1-488): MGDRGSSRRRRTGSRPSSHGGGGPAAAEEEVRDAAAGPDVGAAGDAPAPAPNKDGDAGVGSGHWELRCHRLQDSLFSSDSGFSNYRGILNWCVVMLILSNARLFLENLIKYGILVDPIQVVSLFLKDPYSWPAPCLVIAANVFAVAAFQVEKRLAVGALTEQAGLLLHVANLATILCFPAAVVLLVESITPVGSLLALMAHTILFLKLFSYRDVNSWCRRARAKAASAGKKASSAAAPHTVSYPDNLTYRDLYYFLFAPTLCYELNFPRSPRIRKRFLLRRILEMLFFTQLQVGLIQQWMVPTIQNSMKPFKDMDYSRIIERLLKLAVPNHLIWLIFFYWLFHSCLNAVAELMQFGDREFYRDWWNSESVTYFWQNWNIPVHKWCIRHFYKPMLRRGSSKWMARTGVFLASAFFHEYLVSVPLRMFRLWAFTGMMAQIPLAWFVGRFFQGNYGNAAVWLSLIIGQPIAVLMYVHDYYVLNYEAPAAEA
Protocol: The ability of compounds to inhibit DGAT enzyme activity is determined by calculating IC50 values of test compounds. Ki values of DGAT1 are calculated as follows: Cheng-Prusoff equation: Ki=IC50/(1+[S]/Km)
(1) Human DGAT1 IC50 (nM) Experiment
Human DGAT1 activity was determined as follows:
Expressing human DGAT1 enzyme, used diacylglycerol and 14C-labeled acyl-CoA as the substrate, choose PE Company Flashplate testing board to build DGAT1 enzyme reaction system. 14C-labeled acyl-CoA binds to diacylglycerol by covalent bonding after enzymology reaction, and generates the product of 14C-labeled triglyceride. 14C-labeled acyl-CoA substrate is dissolved in reaction solution and 14C-labeled triglyceride product combine with phospholipids of Flashplate plate bottom layer, thus effectively separate labeled substrates and products. The radioactive of 14C-labeled triglyceride which is combined with phospholipid layer is counted, and the potencies of DGAT-1 inhibition for the compounds are determined by calculating the IC50 values.

[1] = Plasma pharmacokinetics in male SD rats; format: in vivo; conditions: male, SD, plasma, rat
Protocol: (3) Pharmacokinetics of Test Compounds
The purpose of this study is to determine the plasma pharmacokinetics of male SD rats. Two animals will receive a solution of test article in vehicle by single intravenous bolus via tail vein; the dosage is 2 mg/kg. Blood samples are taken at specified time points (0, 0.0833, 0.25, 0.5, 1, 2, 4, 7, 24 h) after dosing. Another two animals will receive a solution or suspension of TA in vehicle by oral gavage at 10 mg/kg. The schedule for sample collection is 0.5, 1, 2, 3, 4, 6, 24 h after dosing. A LC/MS/MS method is used to measure the concentration of test compound in plasma. Non-compartmental pharmacokinetic analysis is performed on the plasma concentration-time data. PK parameters of calculations are done using Phoenix WinNonlin. 6.2.1 software program.

[2] = average of first and second, read-out: hDGAT1 IC50(nM) Average
[3] = first determination, read-out: hDGAT1 IC50(nM) First
[4] = second determination, read-out: hDGAT1 IC50(nM) Second

Row | IC50 (DGAT1; [2]) [nM] | IC50 (DGAT1; [3]) [nM] | IC50 (DGAT1; [4]) [nM] | AUC(0-t) ([1]; iv, 1.78-2.06 mg/kg as printed in each cell, read-out: AUC0-1 (ng · n/mL)) [ng·h/mL] | bioavailability ([1]; oral, 10 mg/kg) [%] | Structure (SMILES)
1 | 34.4 | 24.5 | 44.3 | – | – | Cc1cc(N2CCOc3ncnc(N)c3C2=O)cc(C)c1-c1cn(CC(=O)O)nc1C [Compound 73, 2-(4-(4-(4-amino-5-oxo-7,8-dihydropyrimido [5,4-f][1,4]oxazepin-6(5H)-yl)-2,6-dimethylphenyl)-3-methyl-1H-pyrazol-1-yl)acetic acid]
2 | 41.8 | 45.6 | 37.9 | – | – | Nc1ncnc2c1C(=O)N(c1ccc(-n3ccn(CC(=O)O)c3=O)c(Cl)c1)CCO2 [Compound 28, 2-(3-(4-(4-amino-5-oxo-7,8-dihydropyrimido [5,4-f][1,4]oxazepin-6(5H)-yl)-2-chlorophenyl)-2-oxo-2,3-dihydro-1H-imidazol-1-yl)acetic acid]
3 | 16 | 17.4 | 14.6 | – | – | CC(C)Cn1cc(-c2ccc(N3C[C@@H](C)Oc4ncnc(N)c4C3=O)cc2Cl)cn1 [Compound 45, (R)-4-amino-6-(3-chloro-4-(1-isobutyl-1H-pyrazol-4-yl)phenyl)-8-methyl-7,8-dihydropyrimido[5,4-f][1,4]oxazepin-5(6H)-one]
4 | 45 | 59.5 | 30.5 | – | – | CC(C)(CO)Cn1cc(-c2ccc(N3CCOc4ncnc(N)c4C3=O)cc2Cl)cn1 [Compound 44, 4-amino-6-(3-chloro-4-(1-(3-hydroxy-2,2-dimethylpropyl)-1H-pyrazol-4-yl)phenyl)-7,8-dihydropyrimido[5,4-f][1,4]oxazepin-5(6H)-one]
5 | 31.5 | 24.4 | 38.5 | – | – | Nc1ncnc2c1C(=O)N(c1ccc(N3CCN(CCC(=O)O)C3=O)c(Cl)c1)CCO2 [Compound 6]
6 | 54.8 | 69.2 | 40.3 | – | – | Cc1nn(CCC(=O)O)cc1-c1ccc(N2CCOc3ncnc(N)c3C2=O)cc1Cl [Compound 78, 3-(4-(4-(4-amino-5-oxo-7,8-dihydropyrimido [5,4-f][1,4]oxazepin-6(5H)-yl)-2-chlorophenyl)-3-methyl-1H-pyrazol-1-yl)propanoic acid]
7 | 62.4 | 69 | 55.7 | – | – | Cc1cc(N2CCOc3ncnc(N)c3C2=O)cc(Cl)c1N1CCN(CC(=O)O)C1=O [Compound 27]
8 | 52.9 | 64.1 | 41.6 | – | – | Nc1ncnc2c1C(=O)N(c1ccc(N3CCN(CC(=O)O)C3=O)c(F)c1)CCO2 [Compound 2, 2-(3-(4-(4-amino-5-oxo-7,8-dihydropyrimido[5,4-f][1,4]oxazepin-6(5H)-yl)-2-fluorophenyl)-2-oximidazolidin-1-yl)acetate acid]
9 | 59.1 | 63.1 | 55.1 | – | – | COC(C)(C)Cn1cc(-c2ccc(N3CCOc4ncnc(N)c4C3=O)cc2Cl)cn1 [Compound 94, 4-amino-6-(3-chloro-4-(1-(2-methoxy-2-methylpropyl)-1H-pyrazol-4-yl)phenyl)-7,8-dihydropyrimido[5,4-f][1,4]oxazepin-5(6H)-one]
10 | 23.5 | 14.6 | 32.4 | – | – | Cc1nn(CCC(=O)O)c(C)c1-c1ccc(N2CCOc3ncnc(N)c3C2=O)cc1 [Compound 76]
11 | 60 | 62 | 58 | – | – | CCc1cc(N2CCOc3ncnc(N)c3C2=O)ccc1-c1cnn(CC(C)C)c1 [Compound 90, 4-amino-6-(3-ethyl-4-(1-isobutyl-1H-pyrazol-4-yl)phenyl)-7,8-dihydropyrimido [5,4-f][1,4]oxazepin-5(6H)-one]
12 | 24.4 | 25.4 | 23.4 | – | – | Nc1ncnc2c1C(=O)N(c1ccc(N3CCN(CC4CC4)C3=O)c(Cl)c1)CCO2 [Compound 30, 4-amino-6-(3-chloro-4-(3-(cyclopropylmethyl)-2-oxoimidazolidin-1-yl)phenyl)-7,8-dihydropyrimido [5,4-f][1,4]oxazepin-5(6H)-one]
13 | 59.6 | 75 | 44.2 | – | – | CC(C)(O)Cn1cc(-c2ccc(N3CCOc4ncnc(N)c4C3=O)cc2Cl)cn1 [Compound 42, 4-amino-6-(3-chloro-4-(1-(2-hydroxy-2-methylpropyl)-1H-pyrazol-4-yl)phenyl)-7,8-dihydropyrimido[5,4-f][1,4]oxazepin-5(6H)-one]
14 | 29.3 | 37.7 | 21 | – | – | Cc1nn(CC(=O)O)cc1-c1ccc(N2CCOc3ncnc(N)c3C2=O)cc1Cl [Compound 36, 2-(4-(4-(4-amino-5-oxo-7,8-dihydropyrimido[5,4-f][1,4]oxazepin-6(5H)-yl)-2-chlorophenyl)-3-methyl-1H-pyrazol-1-yl)acetic acid]
15 | 80.7 | 71.2 | 90.1 | – | – | CN(C)C(=O)C(C)(C)Cn1cc(-c2ccc(N3CCOc4ncnc(N)c4C3=O)cc2Cl)cn1 [Compound 89, 3-(4-(4-(4-amino-5-oxo-7,8-dihydropyrimido [5,4-f][1,4]oxazepin-6(5H)-yl)-2-chlorophenyl)-1H-pyrazol-1-yl)-N,N,2,2-tetramethylpropanamide]
16 | 25.8 | 24.8 | 26.7 | – | – | Nc1ncnc2c1C(=O)N(c1ccc(-c3cnn(CCC(=O)O)c3)c(Cl)c1)CCO2 [Compound 35, 3-(4-(4-(4-amino-5-oxo-7,8-dihydropyrimido[5,4-f][1,4]oxazepin-6(5H)-yl)-2-chlorophenyl)-1H-pyrazol-1-yl)propanoic acid]
17 | 45.6 | 52.8 | 38.4 | – | – | Cc1cc(N2CCOc3ncnc(N)c3C2=O)cc(C)c1-c1cn(CCC(=O)O)nc1C [Compound 83, 3-(4-(4-(4-amino-5-oxo-7,8-dihydropyrimido [5,4-f][1,4]oxazepin-6(5H)-yl)-2,6-dimethylphenyl)-3-methyl-1H-pyrazol-1-yl)propanoic acid]
18 | 51.8 | 65.8 | 37.7 | – | – | Nc1ncnc2c1C(=O)N(c1ccc(-c3cnn(CC(=O)O)c3)c(Cl)c1)CCO2 [Compound 56, 2-(4-(4-(4-amino-5-oxo-7,8-dihydropyrimido [5,4-f][1,4]oxaxepin-6(5H)-yl)-2-chlorophenyl)-1H-pyrazol-1-yl)acetic acid]
19 | 35.2 | 37.4 | 32.9 | – | – | CC(C)CN1CCN(c2ccc(N3CCOc4ncnc(N)c4C3=O)cc2Cl)C1=O [Compound 29, 4-amino-6-(3-chloro-4-(3-isobutyl-2-oxoimidazolidin-1-yl)phenyl)-7,8-dihydropyrimido [5,4-f][1,4]oxazepin-5(6H)-one]
20 | 41.5 | 39 | 44.1 | – | – | CC(C)C(C(=O)O)n1cc(-c2ccc(N3CCOc4ncnc(N)c4C3=O)cc2Cl)cn1 (centres unmarked) [Compound 65, 2-(4-(4-(4-amino-5-oxo-7,8-dihydropyrimido [5,4-f][1,4]oxazepin-6(5H)-yl)-2-chlorophenyl)-1H-pyrazol-1-yl)-3-methylbutanoic acid]
21 | 79.6 | 84.6 | 74.5 | – | – | Nc1ncnc2c1C(=O)N(c1ccc(-c3cnn(CCC(=O)O)c3)c(F)c1)CCO2 [Compound 37, 3-(4-(4-(4-amino-5-oxo-7,8-dihydropyrimido[5,4-f][1,4]oxazepin-6(5H)-yl)-2-fluorophenyl)-1H-pyrazol-1-yl) propanoic acid]
22 | 68.2 | 57.9 | 78.6 | – | – | Nc1ncnc2c1C(=O)N(c1ccc(-c3cn(CCC(=O)O)nc3C(F)(F)F)cc1)CCO2 [Compound 62]
23 | – | – | – | 2920 | 109 | Nc1ncnc2c1C(=O)N(c1ccc([C@H]3CC[C@H](CC(=O)O)CC3)cc1)CCO2 [PF-04620110, reference compound]
24 | 50.7 | 46.5 | 55 | – | – | Cc1nn(CCC(=O)O)c(C)c1-c1ccc(N2CCOc3ncnc(N)c3C2=O)cc1Cl [Compound 38, 3-(4-(4-(4-amino-5-oxo-7,8-dihydropyrimido[5,4-f][1,4]oxazepin-6(5H)-yl)-2-chlorophenyl)-3,5-dimethyl-1H-pyrazol-1-yl)propanoic acid]

— patent publication US9809604B2, “DGAT1 inhibitor and preparation method and use thereof” (Qingdao Huanghai Pharmaceutical Co., Ltd., priority 2013, dated 2017)
